What was measured:
[1] = molecular target: human TYK2 (JH2domain-pseudokinase) (Homo sapiens (Human), UniProt P29597); experiment: TYK2 JH2 Domain Binding Assay (KINOMEscan); settings: 11-point 3-fold dilution, top concentration 30,000 nM, duplicate
How it was run: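 Competition binding used an NFkB-DNA-tagged fusion of TYK2 JH2 (G556–D888) expressed in HEK293 extracts against an immobilised ligand, 1 h at room temperature. Bead-bound kinase was quantified by qPCR. Kd came from an 11-point 3-fold series with a 30,000 nM top concentration and 0.9% DMSO, Hill slope −1, run in duplicate.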

TYK2 kinase domain (JH1) = TYK2 kinase domain (JH1) (Homo sapiens (Human), UniProt P29597); experiment: TYK2 Radioactive Kinase Assay; format: biochemical; settings: compound at 10 μM; ATP at 10 μM; 120 min at room temp
Sequence of TYK2 kinase domain (JH1) (P29597 897-1176): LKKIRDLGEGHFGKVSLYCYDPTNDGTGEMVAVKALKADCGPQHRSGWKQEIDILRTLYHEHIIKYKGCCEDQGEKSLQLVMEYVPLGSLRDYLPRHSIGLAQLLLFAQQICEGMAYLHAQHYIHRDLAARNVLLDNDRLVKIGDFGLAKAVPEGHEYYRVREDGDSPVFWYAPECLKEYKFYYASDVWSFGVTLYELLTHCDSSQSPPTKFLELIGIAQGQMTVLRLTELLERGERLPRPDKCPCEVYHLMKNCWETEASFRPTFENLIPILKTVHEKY
Protocol: (§1) Peptide substrate, [KKSRGDYMTMQIG], (20 μM) was prepared in reaction buffer (20 mM Hepes pH 7.5, 10 mM MgCl2, 1 mM EGTA, 0.02% Brij35, 0.02 mg/mL BSA, 0.1 mM […], 2 mM DTT, 1% DMSO). TYK2 (Invitrogen) kinase was added, followed by compounds in DMSO. ^33PATP was added to initiate the reaction in ATP at 10 μM. The kinase reaction was incubated for 120 min at room temp and reactions were spotted onto P81 ion exchange paper (Whatman #3698-915), and then washed extensively in 0.75% phosphoric acid, prior to reading the radioactivity counts. For JAK2 (Invitrogen) kinase assay the peptide substrate poly[Glu:Tyr](4:1), 0.2 mg/ml was used, in the reaction carried out the same as for TYK2.
(§2) The TYK2 and JAK2 radioactive kinase assay measures the percent inhibition at the TYK2 kinase domain (JH1) and the percent inhibition at the JAK2 kinase domain (JH1). Results of the assay are expressed as percent inhibition at 10 μM.

JAK2 kinase domain (JH1) = JAK2 kinase domain (JH1) (Homo sapiens (Human), UniProt O60674); experiment: JAK2 Radioactive Kinase Assay; format: biochemical; settings: compound at 10 μM; ATP at 10 μM; substrate poly[Glu:Tyr](4:1)
Sequence of JAK2 kinase domain (JH1) (O60674 849-1124): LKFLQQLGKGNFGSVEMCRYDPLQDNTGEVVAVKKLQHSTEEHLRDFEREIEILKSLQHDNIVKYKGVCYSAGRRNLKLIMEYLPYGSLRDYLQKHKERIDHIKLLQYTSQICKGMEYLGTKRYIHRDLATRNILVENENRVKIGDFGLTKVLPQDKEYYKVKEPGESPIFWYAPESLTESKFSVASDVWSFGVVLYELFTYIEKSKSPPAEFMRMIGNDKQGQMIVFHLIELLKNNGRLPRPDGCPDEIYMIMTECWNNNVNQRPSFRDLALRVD
Protocol: as §1, §2

Sequence of human TYK2 (JH2domain-pseudokinase) (P29597 556-888): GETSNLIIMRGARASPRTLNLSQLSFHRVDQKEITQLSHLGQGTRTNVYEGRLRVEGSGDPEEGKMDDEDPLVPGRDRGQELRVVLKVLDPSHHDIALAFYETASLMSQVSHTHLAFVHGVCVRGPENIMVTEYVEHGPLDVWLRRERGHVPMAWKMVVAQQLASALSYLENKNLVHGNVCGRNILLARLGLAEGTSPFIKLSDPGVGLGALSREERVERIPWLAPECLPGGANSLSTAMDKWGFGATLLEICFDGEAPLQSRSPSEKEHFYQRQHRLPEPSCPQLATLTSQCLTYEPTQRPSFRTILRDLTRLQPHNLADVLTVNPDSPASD

SMILES	Kd [1]	inhibition at 10 µM (TYK2 kinase domain (JH1))	inhibition at 10 µM (JAK2 kinase domain (JH1))
CNC(=O)c1cnc(NC(=O)C2CC2)c2[nH]c(-c3cc(-c4nccs4)ccn3)cc12 [Compound I-14, 7-(cyclopropanecarboxamido)-N-methyl-2-(4-(thiazol-2-yl)pyridin-2-yl)-1H-pyrrolo[2,3-c]pyridine-4-carboxamide]	0.2 to 1 nM	< 50%	< 50%
CNC(=O)c1cnc(NC(=O)C2CC2)c2[nH]c(-c3cc(-c4ncco4)ccn3)cc12 [Compound I-15, 7-(cyclopropanecarboxamido)-N-methyl-2-(4-(oxazol-2-yl)pyridin-2-yl)-1H-pyrrolo[2,3-c]pyridine-4-carboxamide]	0.2 to 1 nM	< 50%	< 50%
[2H]C([2H])([2H])NC(=O)c1cnc(NC(=O)C2CC2)c2[nH]c(-c3cc(-c4ncn(C)n4)ccn3)cc12 [Compound I-16, 7-(cyclopropanecarboxamido)-N-(methyl-d3)-2-(4-(1-methyl-1H-1,2,4-triazol-3-yl)pyridin-2-yl)-1H-pyrrolo[2,3-c]pyridine-4-carboxamide]	< 0.2 nM	< 50%	< 50%
CNC(=O)c1cnc(NC(=O)C2CC2)c2[nH]c(-c3cc(-n4ccc(C)n4)ccn3)cc12 [Compound I-17, 7-(cyclopropanecarboxamido)-N-methyl-2-(4-(3-methyl-1H-pyrazol-1-yl)pyridin-2-yl)-1H-pyrrolo[2,3-c]pyridine-4-carboxamide]	0.2 to 1 nM	< 50%	< 50%
CNC(=O)c1cnc(NC(=O)C2CC2)c2[nH]c(-c3cccc(-n4cnnc4)c3)cc12 [Compound I-18, 2-(3-(4H-1,2,4-triazol-4-yl)phenyl)-7-(cyclopropanecarboxamido)-N-methyl-1H-pyrrolo[2,3-c]pyridine-4-carboxamide]	0.2 to 1 nM	< 50%	< 50%
CNC(=O)c1cnc(NC(=O)C2CC2)c2[nH]c(-c3ccc4cn(C5CC5)nc4c3)cc12 [Compound I-20, 7-(cyclopropanecarboxamido)-2-(2-cyclopropyl-2H-indazol-6-yl)-N-methyl-1H-pyrrolo[2,3-c]pyridine-4-carboxamide]	0.2 to 1 nM	< 50%	< 50%
CNC(=O)c1cnc(NC(=O)C2CC2)c2[nH]c(-c3ccc4ccn(C)c4c3F)cc12 [Compound I-21, 7-(cyclopropanecarboxamido)-2-(7-fluoro-1-methyl-1H-indol-6-yl)-N-methyl-1H-pyrrolo[2,3-c]pyridine-4-carboxamide]	< 0.2 nM	< 50%	< 50%

The remaining lines, values ahead:

Kd [1]	inhibition at 10 µM (TYK2 kinase domain (JH1))	inhibition at 10 µM (JAK2 kinase domain (JH1))	SMILES
< 0.2 nM	< 50%	< 50%	CNC(=O)c1cnc(NC(=O)C2CC2)c2[nH]c(-c3cccc(N4CCOCC4)c3F)cc12 [Compound I-22, 7-(cyclopropanecarboxamido)-2-(2-fluoro-3-morpholinophenyl)-N-methyl-1H-pyrrolo[2,3-c]pyridine-4-carboxamide]
< 0.2 nM	< 50%	< 50%	CNC(=O)c1cnc(NC(=O)C2CC2)c2[nH]c(-c3ccc(C(=O)N4CCCC4)cc3OC)cc12 [Compound I-25, 7-(cyclopropanecarboxamido)-2-(2-methoxy-4-(pyrrolidine-1-carbonyl)phenyl)-N-methyl-1H-pyrrolo[2,3-c]pyridine-4-carboxamide]
< 0.2 nM	< 50%	< 50%	CNC(=O)c1cnc(NC(=O)C2CC2)c2[nH]c(-c3ccc(N4CCCC4=O)cc3OC)cc12 [Compound I-26, 7-(cyclopropanecarboxamido)-2-(2-methoxy-4-(2-oxopyrrolidin-1-yl)phenyl)-N-methyl-1H-pyrrolo[2,3-c]pyridine-4-carboxamide]
